Data reported in the kinase profiling compilation of Christmann-Franck et al. (2016).

Columns and labels:
Test in all cases: radiometric filter-binding kinase assay, Kinase HotSpot
Conditions in all cases: compound 0.5 µM; ATP 10 µM
[1] = target: INSRR (human) (UniProt P14616)
[2] = target: GSK3A (human) (UniProt P49840)
[3] = target: EPHB2 (human) (UniProt P29323)
[4] = target: STK16 (human) (UniProt O75716)
[5] = target: MAPKAPK3 (human) (UniProt Q16644)
[6] = target: CLK2 (human) (UniProt P49760)
[7] = target: FRK (human) (UniProt P42685)
[8] = target: DCLK2 (human) (UniProt Q8N568)
[9] = target: PHKG1 (human) (UniProt Q16816)
[10] = target: ACVRL1 (human) (UniProt P37023)
[11] = target: EPHA6 (human) (UniProt Q9UF33)
[12] = target: BRSK1 (human) (UniProt Q8TDC3)
[13] = target: DSTYK (human) (UniProt Q6XUX3)
[14] = target: LRRK2 (human) (UniProt Q5S007)
[15] = target: PASK (human) (UniProt Q96RG2)
[16] = target: CDC42BPA (human) (UniProt Q5VT25)
[17] = target: LTK (human) (UniProt P29376)
[18] = target: MAPK13 (human) (UniProt O15264)
[19] = target: BRSK2 (human) (UniProt Q8IWQ3)
[20] = target: MARK3 (human) (UniProt P27448)
[21] = target: MYLK2 (human) (UniProt Q9H1R3)
[22] = target: CDK2 CCNA2 (human) (UniProt P24941+P20248)
[23] = target: ULK1 (human) (UniProt O75385)
[24] = target: EPHB3 (human) (UniProt P54753)
[25] = target: NEK9 (human) (UniProt Q8TD19)
[26] = target: FGFR3 (human) (UniProt P22607)
[27] = target: AKT1 (human) (UniProt P31749)
[28] = target: RPS6KA1 KD1 KD2 (human) (UniProt Q15418)
[29] = target: MAP3K10 (human) (UniProt Q02779)
[30] = target: PRKACA (human) (UniProt P17612)
[31] = target: MAP2K2 (human) (UniProt P36507)
[32] = target: CDK5 CDK5R1 p35 (human) (UniProt Q00535+Q15078)
[33] = target: PAK6 (human) (UniProt Q9NQU5)
[34] = target: MAP2K1 (human) (UniProt Q02750)
[35] = target: RPS6KA3 KD1 KD2 (human) (UniProt P51812)
[36] = target: ULK2 (human) (UniProt Q8IYT8)
[37] = target: BLK (human) (UniProt P51451)
[38] = target: PIM2 (human) (UniProt Q9P1W9)
[39] = target: CSF1R (human) (UniProt P07333)
[40] = target: EPHA1 (human) (UniProt P21709)
[41] = target: CAMKK2 (human) (UniProt Q96RR4)
[42] = target: MAP4K2 (human) (UniProt Q12851)

Chain of MAPKAPK3 (human) (Q16644 whole entry, looked up): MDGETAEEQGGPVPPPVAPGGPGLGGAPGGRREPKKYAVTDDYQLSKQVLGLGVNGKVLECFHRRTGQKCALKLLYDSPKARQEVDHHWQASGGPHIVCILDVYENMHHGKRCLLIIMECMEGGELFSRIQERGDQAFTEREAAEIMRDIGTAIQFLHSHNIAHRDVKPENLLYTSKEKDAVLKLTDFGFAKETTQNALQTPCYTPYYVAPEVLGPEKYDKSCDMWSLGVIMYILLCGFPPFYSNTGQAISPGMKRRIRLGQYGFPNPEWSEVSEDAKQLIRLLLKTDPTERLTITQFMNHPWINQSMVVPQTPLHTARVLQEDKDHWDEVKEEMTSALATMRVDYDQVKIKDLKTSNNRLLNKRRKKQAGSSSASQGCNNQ
Chain of CLK2 (human) (P49760 whole entry, looked up): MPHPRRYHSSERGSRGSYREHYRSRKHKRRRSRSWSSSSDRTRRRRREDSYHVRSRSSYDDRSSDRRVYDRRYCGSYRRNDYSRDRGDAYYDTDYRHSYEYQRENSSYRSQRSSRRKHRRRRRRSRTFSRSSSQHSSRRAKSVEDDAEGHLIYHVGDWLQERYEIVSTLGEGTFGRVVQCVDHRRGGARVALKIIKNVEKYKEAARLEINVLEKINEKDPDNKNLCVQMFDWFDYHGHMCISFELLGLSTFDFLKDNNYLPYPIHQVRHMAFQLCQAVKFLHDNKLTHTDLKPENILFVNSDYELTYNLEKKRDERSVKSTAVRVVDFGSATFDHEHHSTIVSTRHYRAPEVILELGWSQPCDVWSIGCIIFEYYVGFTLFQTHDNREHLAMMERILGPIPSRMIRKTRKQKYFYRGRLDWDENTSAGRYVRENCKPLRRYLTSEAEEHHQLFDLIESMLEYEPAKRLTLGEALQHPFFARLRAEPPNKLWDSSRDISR
Chain of AKT1 (human) (P31749 whole entry, looked up): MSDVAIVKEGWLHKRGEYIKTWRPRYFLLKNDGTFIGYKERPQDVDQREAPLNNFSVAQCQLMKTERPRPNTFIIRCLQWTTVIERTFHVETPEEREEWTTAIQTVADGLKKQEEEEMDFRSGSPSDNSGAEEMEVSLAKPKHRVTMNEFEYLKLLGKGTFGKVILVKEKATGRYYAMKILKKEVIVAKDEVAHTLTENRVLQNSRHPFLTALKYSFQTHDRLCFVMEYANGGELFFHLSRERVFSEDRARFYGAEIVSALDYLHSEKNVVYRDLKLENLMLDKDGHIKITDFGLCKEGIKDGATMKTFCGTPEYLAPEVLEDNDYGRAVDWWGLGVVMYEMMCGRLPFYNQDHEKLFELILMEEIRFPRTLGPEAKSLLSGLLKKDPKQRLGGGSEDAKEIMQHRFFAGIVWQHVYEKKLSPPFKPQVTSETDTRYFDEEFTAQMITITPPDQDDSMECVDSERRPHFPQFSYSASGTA
Chain of ACVRL1 (human) (P37023 whole entry, looked up): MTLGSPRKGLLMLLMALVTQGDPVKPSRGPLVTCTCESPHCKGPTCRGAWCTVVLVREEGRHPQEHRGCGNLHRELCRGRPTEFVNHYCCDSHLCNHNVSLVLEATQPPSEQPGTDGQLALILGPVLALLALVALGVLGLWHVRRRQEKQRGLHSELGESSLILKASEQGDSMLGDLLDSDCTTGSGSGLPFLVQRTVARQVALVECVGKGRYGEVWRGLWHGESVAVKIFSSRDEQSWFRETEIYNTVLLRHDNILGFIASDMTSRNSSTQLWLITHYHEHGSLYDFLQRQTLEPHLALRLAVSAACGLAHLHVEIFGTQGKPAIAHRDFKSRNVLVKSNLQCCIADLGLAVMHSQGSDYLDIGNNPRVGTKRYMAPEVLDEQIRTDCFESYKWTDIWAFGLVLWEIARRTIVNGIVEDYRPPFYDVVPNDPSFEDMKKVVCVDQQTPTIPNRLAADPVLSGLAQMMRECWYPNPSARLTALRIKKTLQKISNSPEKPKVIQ
Chain of ULK2 (human) (Q8IYT8 whole entry, looked up): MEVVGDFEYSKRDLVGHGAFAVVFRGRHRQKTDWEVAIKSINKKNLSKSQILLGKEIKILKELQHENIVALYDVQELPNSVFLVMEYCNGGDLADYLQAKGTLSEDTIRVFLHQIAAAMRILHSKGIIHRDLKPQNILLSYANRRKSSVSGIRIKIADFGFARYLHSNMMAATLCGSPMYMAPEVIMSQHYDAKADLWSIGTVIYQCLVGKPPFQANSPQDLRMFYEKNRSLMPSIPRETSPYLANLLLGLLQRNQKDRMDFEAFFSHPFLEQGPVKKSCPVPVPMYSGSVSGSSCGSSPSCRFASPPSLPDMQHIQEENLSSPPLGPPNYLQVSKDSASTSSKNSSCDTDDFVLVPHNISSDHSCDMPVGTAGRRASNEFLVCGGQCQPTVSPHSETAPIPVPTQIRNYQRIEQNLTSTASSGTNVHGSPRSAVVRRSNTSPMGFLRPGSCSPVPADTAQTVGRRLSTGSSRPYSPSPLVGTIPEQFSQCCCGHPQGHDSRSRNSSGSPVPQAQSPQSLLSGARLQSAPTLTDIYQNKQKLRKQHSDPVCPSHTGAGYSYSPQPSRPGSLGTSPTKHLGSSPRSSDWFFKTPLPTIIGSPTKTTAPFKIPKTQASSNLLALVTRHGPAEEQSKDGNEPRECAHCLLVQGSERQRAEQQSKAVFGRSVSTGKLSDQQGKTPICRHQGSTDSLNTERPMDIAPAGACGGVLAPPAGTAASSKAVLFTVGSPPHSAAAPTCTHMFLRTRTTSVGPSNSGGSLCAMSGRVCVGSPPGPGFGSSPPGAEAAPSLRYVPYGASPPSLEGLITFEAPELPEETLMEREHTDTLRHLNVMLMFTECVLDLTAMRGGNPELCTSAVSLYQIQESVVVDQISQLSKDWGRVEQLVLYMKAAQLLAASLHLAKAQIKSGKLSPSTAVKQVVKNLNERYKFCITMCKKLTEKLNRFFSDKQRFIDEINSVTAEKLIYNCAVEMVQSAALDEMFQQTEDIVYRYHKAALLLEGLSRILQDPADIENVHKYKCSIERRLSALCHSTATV
Chain of BRSK1 (human) (Q8TDC3 whole entry, looked up): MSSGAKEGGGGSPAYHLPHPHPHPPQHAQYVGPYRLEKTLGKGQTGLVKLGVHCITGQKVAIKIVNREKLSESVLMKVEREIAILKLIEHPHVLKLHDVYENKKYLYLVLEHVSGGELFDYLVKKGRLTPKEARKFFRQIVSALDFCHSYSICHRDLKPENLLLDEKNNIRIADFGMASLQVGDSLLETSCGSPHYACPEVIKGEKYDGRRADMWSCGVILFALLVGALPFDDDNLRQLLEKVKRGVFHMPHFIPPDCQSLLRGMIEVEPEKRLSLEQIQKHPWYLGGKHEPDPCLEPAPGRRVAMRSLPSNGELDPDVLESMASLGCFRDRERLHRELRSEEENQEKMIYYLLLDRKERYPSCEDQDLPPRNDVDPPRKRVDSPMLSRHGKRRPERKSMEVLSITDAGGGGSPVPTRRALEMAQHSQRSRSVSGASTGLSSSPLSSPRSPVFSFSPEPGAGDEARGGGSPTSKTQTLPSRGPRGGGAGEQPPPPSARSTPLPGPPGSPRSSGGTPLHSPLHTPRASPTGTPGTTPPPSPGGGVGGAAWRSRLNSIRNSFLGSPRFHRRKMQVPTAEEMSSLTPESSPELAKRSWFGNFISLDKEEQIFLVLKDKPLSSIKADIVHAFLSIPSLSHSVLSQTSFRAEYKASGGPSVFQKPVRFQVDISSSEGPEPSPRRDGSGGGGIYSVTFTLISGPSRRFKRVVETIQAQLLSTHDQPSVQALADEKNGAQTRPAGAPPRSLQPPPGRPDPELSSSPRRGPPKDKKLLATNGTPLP
Chain of DSTYK (human) (Q6XUX3 whole entry, looked up): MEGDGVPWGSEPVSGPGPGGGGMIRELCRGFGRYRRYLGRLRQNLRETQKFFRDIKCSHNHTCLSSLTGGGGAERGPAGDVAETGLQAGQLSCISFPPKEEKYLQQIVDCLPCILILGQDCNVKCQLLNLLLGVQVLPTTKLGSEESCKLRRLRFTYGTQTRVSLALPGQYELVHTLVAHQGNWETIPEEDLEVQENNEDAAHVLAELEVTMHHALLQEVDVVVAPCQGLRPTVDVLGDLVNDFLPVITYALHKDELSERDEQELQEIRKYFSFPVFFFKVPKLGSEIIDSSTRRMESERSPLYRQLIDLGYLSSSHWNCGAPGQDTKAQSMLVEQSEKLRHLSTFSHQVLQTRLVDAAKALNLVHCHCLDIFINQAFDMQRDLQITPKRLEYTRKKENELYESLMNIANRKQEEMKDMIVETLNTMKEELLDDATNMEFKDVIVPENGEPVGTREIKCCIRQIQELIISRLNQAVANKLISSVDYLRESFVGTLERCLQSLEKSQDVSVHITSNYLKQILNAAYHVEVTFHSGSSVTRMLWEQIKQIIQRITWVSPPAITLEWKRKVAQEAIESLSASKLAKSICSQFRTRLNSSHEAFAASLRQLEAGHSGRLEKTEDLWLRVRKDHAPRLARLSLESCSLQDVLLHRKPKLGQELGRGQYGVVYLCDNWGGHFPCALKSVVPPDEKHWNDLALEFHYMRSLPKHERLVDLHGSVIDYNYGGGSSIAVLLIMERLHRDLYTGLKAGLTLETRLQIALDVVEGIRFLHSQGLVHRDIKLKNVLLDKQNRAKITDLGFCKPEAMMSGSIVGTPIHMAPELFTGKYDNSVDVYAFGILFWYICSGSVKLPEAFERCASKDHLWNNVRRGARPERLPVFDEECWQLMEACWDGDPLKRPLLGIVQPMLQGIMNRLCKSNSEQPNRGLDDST
Chain of MAP2K1 (human) (Q02750 whole entry, looked up): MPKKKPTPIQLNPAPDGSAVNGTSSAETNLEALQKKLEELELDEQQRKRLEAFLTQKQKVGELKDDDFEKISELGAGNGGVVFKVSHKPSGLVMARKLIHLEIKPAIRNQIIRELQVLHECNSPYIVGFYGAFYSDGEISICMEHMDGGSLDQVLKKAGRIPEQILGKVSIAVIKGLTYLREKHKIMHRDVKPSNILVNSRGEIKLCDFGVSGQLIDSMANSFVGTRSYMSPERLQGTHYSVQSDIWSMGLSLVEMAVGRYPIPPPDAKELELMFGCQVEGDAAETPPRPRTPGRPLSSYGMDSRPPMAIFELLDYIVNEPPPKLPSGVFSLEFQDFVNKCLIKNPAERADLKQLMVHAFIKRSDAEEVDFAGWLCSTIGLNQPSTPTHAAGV

CNc1cc2c(Nc3cccc(Br)c3)ncnc2cn1
residual activity [1]: 98.2%
residual activity [2]: 95.9%
residual activity [3]: 91.2%
residual activity [4]: 98.6%
residual activity [5]: 99.2%
residual activity [6]: 88.3%
residual activity [7]: 91.2%
residual activity [8]: 90.4%
residual activity [9]: 91.4%
residual activity [10]: 90.6%
residual activity [11]: 70%
residual activity [12]: 91.2%
residual activity [13]: 94.1%
residual activity [14]: 67%
residual activity [15]: 86.9%
residual activity [16]: 95.2%
residual activity [17]: 76.2%
residual activity [18]: 102%
residual activity [19]: 90.9%
residual activity [20]: 82.2%
residual activity [21]: 97.3%
residual activity [22]: 106%
residual activity [23]: 98.8%
residual activity [24]: 92.7%
residual activity [25]: 99.4%
residual activity [26]: 85.4%
residual activity [27]: 98.8%
residual activity [28]: 90.9%
residual activity [29]: 90.1%
residual activity [30]: 104%
residual activity [31]: 90.4%
residual activity [32]: 100%
residual activity [33]: 96.6%
residual activity [34]: 74.6%
residual activity [35]: 86.6%
residual activity [36]: 119%
residual activity [37]: 103%
residual activity [38]: 102%
residual activity [39]: 100%
residual activity [40]: 103%
residual activity [41]: 80%
residual activity [42]: 74.8%

O=C1NC(=O)C(c2cn(CCCn3ccnc3)c3ccccc23)=C1Nc1ccccc1
residual activity [1]: 101%
residual activity [2]: 10.6%
residual activity [3]: 98.4%
residual activity [4]: 110%
residual activity [5]: 92.4%
residual activity [6]: 14.7%
residual activity [7]: 107%
residual activity [8]: 96.3%
residual activity [9]: 64.6%
residual activity [10]: 95.9%
residual activity [11]: 106%
residual activity [12]: 95.3%
residual activity [13]: 102%
residual activity [14]: 43.6%
residual activity [15]: 98%
residual activity [16]: 95.2%
residual activity [17]: 93.4%
residual activity [18]: 122%
residual activity [19]: 93.6%
residual activity [20]: 92.1%
residual activity [21]: 95.7%
residual activity [22]: 83.4%
residual activity [23]: 90.1%
residual activity [24]: 99.7%
residual activity [25]: 89.1%
residual activity [26]: 100%
residual activity [27]: 101%
residual activity [28]: 7.54%
residual activity [29]: 34.5%
residual activity [30]: 94%
residual activity [31]: 102%
residual activity [32]: 91.4%
residual activity [33]: 105%
residual activity [34]: 90.6%
residual activity [35]: 3.85%
residual activity [36]: 91.7%
residual activity [37]: 90.9%
residual activity [38]: 102%
residual activity [39]: 97.5%
residual activity [40]: 101%
residual activity [41]: 51.3%
residual activity [42]: 85.7%

Oc1cccc(-c2nc(N3CCOCC3)c3oc4ncccc4c3n2)c1
residual activity [1]: 114%
residual activity [2]: 90.2%
residual activity [3]: 88.6%
residual activity [4]: 91.7%
residual activity [5]: 93.9%
residual activity [6]: 88%
residual activity [7]: 91.3%
residual activity [8]: 102%
residual activity [9]: 93.3%
residual activity [10]: 105%
residual activity [11]: 79%
residual activity [12]: 91.1%
residual activity [13]: 96.1%
residual activity [14]: 101%
residual activity [15]: 83.8%
residual activity [16]: 94.5%
residual activity [17]: 97.6%
residual activity [18]: 97.4%
residual activity [19]: 97.1%
residual activity [20]: 97.4%
residual activity [21]: 99%
residual activity [22]: 104%
residual activity [23]: 113%
residual activity [25]: 99.3%
residual activity [26]: 101%
residual activity [27]: 95.3%
residual activity [28]: 79.5%
residual activity [29]: 92%
residual activity [30]: 99.5%
residual activity [31]: 85%
residual activity [32]: 101%
residual activity [33]: 105%
residual activity [34]: 97.7%
residual activity [35]: 101%
residual activity [36]: 106%
residual activity [37]: 101%
residual activity [38]: 96.9%
residual activity [39]: 108%
residual activity [40]: 87.8%
residual activity [41]: 79.8%
residual activity [42]: 93%
